We go through 2 compounds from US20220323329A1, “ORAL HEALTH COMPOSITION AND PREPARATION PROCESS FOR ORAL HEALTH COMPOSITION” (MMF&T DESENVOLVIMENTO TECNOLÓGICO E INOVAÇÃO LTDA., priority 2019, published 2022).

Test [1] concerns Streptococcus mutans (ATCC 25175). In words: Antimicrobial potential of phthalocyanine by direct contact. The class given is cell-based. To be noted: different concentrations and timespans (10.000 mg and 1.000 mg, 3 and 5 minutes in FIGS. 5, 6). The method, then:
(§1) Studies were carried out for the improvement of antimicrobial potential of phthalocyanines, in an intrinsic aim of developing toothpastes, such as dental creams and dental foams including phthalocyanine for in vitro studies and possibly also in vivo studies.
(§2) For this purpose, the following microorganisms were used: Streptococcus mutans (ATCC 25175); Candida albicans (ATCC 10231); Enterococcus faecalis (ATCC 29212); and Staphylococcus aureus (ATCC 6538).

In test [2] the test system is Enterococcus faecalis (ATCC 29212). The test is described as above. The class given is cell-based. The following applies: different concentrations and timespans (10.000 mg and 1.000 mg, 24 hours in FIG. 3). The method, then:
as §1, §2

In test [3] the test system is Staphylococcus aureus (ATCC 6538). The test is described as above. Format: cell-based. To be noted: different concentrations and timespans (10.000 mg and 1.000 mg, 24 hours in FIG. 4). Here is the method:
as §1, §2

The test system of test [4] is Candida albicans (ATCC 10231). Described as above. The following applies: different concentrations and timespans (10.000 mg and 1.000 mg, 24 hours in FIG. 2). Format: cell-based. The method, then: as §1, §2
The conditions of test [5]: PDT with phthalocyanine-glucamine as PTS; rats; cited from earlier work.

Take `c1ccc2c(c1)-c1nc-2nc2[nH]c(nc3nc(nc4[nH]c(n1)c1ccccc41)-c1ccccc1-3)c1ccccc21` [phthalocyanine]: the “microbicidal action / inhibition of microbial growth” value in test [1], in test [2], in test [3] and in test [4] was “full inhibition of microbial growth” in each case.
Take phthalocyanine-glucamine: the “treatment of induced periodontal disease” value in test [5] is “effective in the treatment of periodontal disease induced in rats”.
